# Source: ChEMBL document CHEMBL5236550, “Small molecule selenium-containing compounds: Recent development and therapeutic applications” (Eur J Med Chem, 2021)
# Assays:
# Staphylococcus aureus [1] = assay: Antibacterial activity against Staphylococcus aureus ATCC 2592 assessed as bacterial growth inhibition incubated for 20 to 24 hrs by microdilution assay; assay type: functional; details: time 20-24 hrs
# Enterococcus faecalis [2] = assay: Antibacterial activity against Enterococcus faecalis ATCC 29212 assessed as bacterial growth inhibition incubated for 20 to 24 hrs by microdilution assay; assay type: functional; details: time 20-24 hrs
# Staphylococcus aureus [3] = assay: Antibacterial activity against Staphylococcus aureus HEMSA assessed as bacterial growth inhibition incubated for 20 to 24 hrs by microdilution assay; assay type: functional; details: time 20-24 hrs
# Fusarium = assay: Antifungal activity against Fusarium assessed as fungal growth inhibition incubated by microtitre assay; assay type: functional
# Aspergillus = assay: Antifungal activity against Aspergillus assessed as fungal growth inhibition incubated by microtitre assay; assay type: functional
# SH-SY5Y = assay: Antitumor activity against human SH-SY5Y cells assessed as induction of apoptosis by propidium iodide staining based flow cytometry analysis; assay type: functional, cell-based
# Candida albicans = assay: Antifungal activity against Candida albicans assessed as fungal growth inhibition incubated by microtitre assay; assay type: functional
# [4] = Inhibition of Vibrio cholerae carbonic anhydrase alpha assessed as inhibition constant by stopped-flow CO2 hydration assay
# [5] = Inhibition of Vibrio cholerae alpha carbonic anhydrase assessed as inhibition constant by phenol red-based hydrase assay
# Trypanosoma cruzi [6] = assay: Antibacterial activity against Trypanosoma cruzi Y assessed as fold change in bacterial growth incubated for 24 hrs; assay type: functional
# EBC-1 = assay: Anticancer activity against human EBC-1 cells assessed as cell growth inhibition incubated for 72 hrs by resazurin based spectrophotometer analysis; assay type: functional; details: EBC-1, 72 h
# EJ = assay: Anticancer activity against human EJ cells assessed as cell growth inhibition incubated for 72 hrs by MTT assay; assay type: functional, cell-based
# Carbonic anhydrase 9 = Carbonic anhydrase 9 (Homo sapiens, UniProt Q16790); assay: Inhibition of human carbonic anhydrase 9 assessed as inhibition constant
# Carbonic anhydrase 2 = Carbonic anhydrase 2 (Homo sapiens, UniProt P00918); assay: Inhibition of human carbonic anhydrase 2 assessed as inhibition constant
# Carbonic anhydrase 1 = Carbonic anhydrase 1 (Homo sapiens, UniProt P00915); assay: Inhibition of human carbonic anhydrase 1 assessed as inhibition constant
# Sequence of Carbonic anhydrase 1 (P00915 whole entry): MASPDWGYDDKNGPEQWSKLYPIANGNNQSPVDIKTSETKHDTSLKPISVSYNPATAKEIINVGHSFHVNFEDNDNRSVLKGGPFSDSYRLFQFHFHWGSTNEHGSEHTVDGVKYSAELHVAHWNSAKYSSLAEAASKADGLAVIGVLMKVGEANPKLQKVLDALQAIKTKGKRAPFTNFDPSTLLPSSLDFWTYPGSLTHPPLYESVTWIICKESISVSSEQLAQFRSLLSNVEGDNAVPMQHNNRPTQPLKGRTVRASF
# Carbonic anhydrase 12 = Carbonic anhydrase 12 (Homo sapiens, UniProt O43570); assay: Inhibition of human carbonic anhydrase 12 assessed as inhibition constant
# Sequence of Carbonic anhydrase 12 (O43570 whole entry): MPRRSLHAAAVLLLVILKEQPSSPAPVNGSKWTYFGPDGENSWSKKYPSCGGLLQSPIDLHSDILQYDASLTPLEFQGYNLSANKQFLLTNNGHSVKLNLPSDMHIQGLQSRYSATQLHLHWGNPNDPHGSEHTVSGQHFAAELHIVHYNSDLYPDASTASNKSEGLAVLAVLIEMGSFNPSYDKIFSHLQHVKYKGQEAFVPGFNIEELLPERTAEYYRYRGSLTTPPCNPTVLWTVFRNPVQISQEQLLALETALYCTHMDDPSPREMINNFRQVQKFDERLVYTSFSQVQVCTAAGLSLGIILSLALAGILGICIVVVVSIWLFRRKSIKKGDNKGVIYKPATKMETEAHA
# Carbonic anhydrase 7 = Carbonic anhydrase 7 (Homo sapiens, UniProt P43166); assay: Inhibition of human carbonic anhydrase 7 assessed as inhibition constant by a stopped flow CO2 hydrase assay
# Sequence of Carbonic anhydrase 7 (P43166 whole entry): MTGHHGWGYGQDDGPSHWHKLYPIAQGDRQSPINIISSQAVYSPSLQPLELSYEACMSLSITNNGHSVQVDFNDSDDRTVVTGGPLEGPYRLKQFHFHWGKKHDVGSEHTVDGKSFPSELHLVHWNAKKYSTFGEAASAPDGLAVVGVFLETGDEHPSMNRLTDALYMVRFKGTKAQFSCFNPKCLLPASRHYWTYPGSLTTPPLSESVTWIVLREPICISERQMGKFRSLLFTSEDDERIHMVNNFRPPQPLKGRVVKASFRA
# [7] = Anticancer activity against human SWO-38 cells assessed as cell growth inhibition incubated for 48 hrs by MTT assay; assay type: functional, cell-based; details: SWO-38, 48 h
# Leishmania major = assay: Antibacterial activity against Leishmania major assessed as bacterial growth inhibition incubated for 72 hrs by MTT assay; assay type: functional, organism-based
# Leishmania amazonensis = assay: […] inhibition incubated for 72 hrs by Giemsa stain based microscopic analysis; assay type: functional, organism-based
# NCI-H1299 = assay: Anticancer activity against human H1299 cells assessed as cell growth inhibition incubated for 48 hrs by MTT assay; assay type: functional, cell-based; details: NCI-H1299, 48 h
# Calu-1 = assay: Anticancer activity against human HTB-54 cells assessed as cell growth inhibition incubated for 48 hrs by MTT assay; assay type: functional, cell-based; details: Calu-1, 48 h
# Bacillus cereus [8] = assay: […] activity against Bacillus cereus assessed as bacterial growth inhibition incubated for 24 hrs by microtitre analysis; assay type: functional
# Bacillus cereus [9] = assay: Antibacterial activity against Bacillus cereus assessed as bacterial growth inhibition incubated for 24 hrs by microtitre analysis; assay type: functional
# Enterococcus faecalis [10] = assay: Antibacterial activity against Enterococcus faecalis assessed as bacterial growth inhibition incubated for 24 hrs by microtitre analysis; assay type: functional
# [11] = test system: Staphylococcus saprophyticus; assay: Antibacterial activity against Staphylococcus saprophyticus assessed as bacterial growth inhibition incubated for 24 hrs by microtitre analysis; assay type: functional
# HeLa [12] = assay: Anticancer activity against human HeLa cells assessed as cell growth inhibition incubated for 72 hrs by MTT assay; assay type: functional, cell-based
# Aspergillus niger = assay: […] inhibition incubated for 24 hrs by agar disc diffusion assay; assay type: functional
# HeLa [13] = assay: Anticancer activity against human HeLa cells assessed as cell growth inhibition; assay type: functional, cell-based
# HeLa [14] = assay: Anticancer activity against human HeLa assessed as cell growth inhibition; assay type: functional, cell-based
# Staphylococcus aureus [15] = assay: Antibacterial activity against Methicillin resistant Staphylococcus aureus assessed as bacterial growth inhibition incubated for 20 hrs by […]; assay type: functional
# Escherichia coli [16] = assay: Antibacterial activity against Escherichia coli EC 1995591 assessed as bacterial growth inhibition incubated for 20 hrs by […]; assay type: functional
# Klebsiella pneumoniae [17] = assay: Antibacterial activity against Klebsiella pneumoniae KP 1963584 assessed as bacterial growth inhibition incubated for 20 hrs by […]; assay type: functional, organism-based; details: KP 1963584, 20 h
# Pseudomonas aeruginosa [18] = assay: Antibacterial activity against Pseudomonas aeruginosa PA 54 assessed as bacterial growth inhibition incubated for 20 hrs by […]; assay type: functional, organism-based
# Acinetobacter [19] = assay: Antibacterial activity against Acinetobacter AB 4184/2/5 assessed as bacterial growth inhibition incubated for 20 hrs by […]; assay type: functional, organism-based; details: AB 4184/2/5, 20 h
# Pseudomonas aeruginosa [20] = assay: Antibacterial activity against Pseudomonas aeruginosa PA 58 assessed as bacterial growth inhibition incubated for 20 hrs by […]; assay type: functional
# Pseudomonas aeruginosa [21] = assay: Antibacterial activity against Pseudomonas aeruginosa PA T18 assessed as bacterial growth inhibition incubated for 20 hrs by […]; assay type: functional, organism-based; details: PA T18, 20 h
# Klebsiella pneumoniae [22] = assay: Antibacterial activity against Klebsiella pneumoniae NRZ-00103 assessed as bacterial growth inhibition incubated for 20 hrs by […]; assay type: functional, organism-based; details: NRZ-00103, 20 h
# Escherichia coli [23] = assay: Antibacterial activity against Escherichia coli EC 2151612 assessed as bacterial growth inhibition incubated for 20 hrs by […]; assay type: functional
# Acinetobacter [24] = assay: Antibacterial activity against Acinetobacter AC 2151300 assessed as bacterial growth inhibition incubated for 20 hrs by […]; assay type: functional, organism-based; details: AC 2151300, 20 h
# Escherichia coli [25] = assay: Antibacterial activity against Escherichia coli NCTC 13351 assessed as bacterial growth inhibition incubated for 20 hrs by […]; assay type: functional
# Klebsiella pneumoniae [26] = assay: Antibacterial activity against Klebsiella pneumoniae KP 21513017 assessed as bacterial growth inhibition incubated for 20 hrs by […]; assay type: functional, organism-based; details: KP 21513017, 20 h
# Acinetobacter [27] = assay: Antibacterial activity against Acinetobacter AC 1995594 assessed as bacterial growth inhibition incubated for 20 hrs by […]; assay type: functional, organism-based; details: AC 1995594, 20 h
# Pseudomonas aeruginosa [28] = assay: Antibacterial activity against Pseudomonas aeruginosa ATCC 27853 assessed as bacterial growth inhibition incubated for 20 hrs by […]; assay type: functional, organism-based; details: ATCC 27853, 20 h
# Escherichia coli [29] = assay: Antibacterial activity against Escherichia coli EC 1227107 assessed as bacterial growth inhibition incubated for 20 hrs by […]; assay type: functional
# A-375 = assay: Anticancer activity against human A-375 cells assessed as cell growth inhibition incubated for 72 hrs by fluorescence based MTT assay; assay type: functional; details: A-375, 72 h
# HepG2 = assay: Anticancer activity against human HepG2 cells assessed as cell growth inhibition incubated for 72 hrs by fluorescence based MTT assay; assay type: functional; details: HepG2, 72 h
# MCF7 = assay: Anticancer activity against human MCF7 cells assessed as cell growth inhibition incubated for 72 hrs by fluorescence based MTT assay; assay type: functional; details: MCF7, 72 h
# Trypanosoma cruzi [30] = assay: Antibacterial activity against Trypanosoma cruzi Y assessed as bacterial growth inhibition incubated for 24 hrs; assay type: functional, organism-based
# Trypanosoma cruzi [31] = assay: Antibacterial activity against Trypanosoma cruzi Dm28c assessed as inhibition of bacterial growth incubated for 72 hrs by microplate reader analysis; assay type: functional, organism-based
# MIA PaCa-2 = assay: Anticancer activity against human MIA PaCa-2 cells xenografted in female Foxn1nu mouse assessed as reduction in tumor growth po,administered once daily for 28 days; assay type: functional; details: time 28 day
# U-266 = assay: Anticancer activity against human U-266 cells assessed as cell growth inhibition incubated for 24 hrs by MTS assay; assay type: functional, cell-based; details: U-266, 24 h
# DU-145 = assay: Anticancer activity against human DU-145 cells assessed as cell growth inhibition incubated for 24 to 96 hrs by MTT assay; assay type: functional, cell-based
# PC-3 = assay: Anticancer activity against human PC-3 cells assessed as cell growth inhibition incubated for 24 to 96 hrs by MTT assay; assay type: functional, cell-based
structure (smiles),measurement,setting,value
CC(=O)C[Se]C(=O)c1ccc(Cl)cc1,MIC,Staphylococcus aureus [1],3.12 µM
same,MIC,Enterococcus faecalis [2],12.5 µM
same,MIC,Staphylococcus aureus [3],3.91 µM
c1ccc([Se][Se]c2ccccc2)cc1,MIC,Fusarium,2 µg/mL
same,MIC,Aspergillus,0.5 µg/mL
same,IC50,SH-SY5Y,30 µM
same,MIC,Candida albicans,4 µg/mL
NS(=O)(=O)c1ccc(CCNC(=[Se])NC(=O)c2ccc3c(c2)OCO3)cc1,Ki,[4],0.0003 µM
NS(=O)(=O)c1ccc([Se]CCc2ccccc2)cc1,Ki,[5],0.0043 µM
CC1(C)OC2=C(CC1[Se]c1ccc(F)cc1)C(=O)C(=O)c1ccccc12 (stereo not given),fold change (FC),Trypanosoma cruzi [6],2.6
CN(C)C(SCCCCCCN(C)c1ccc(-n2[se]c3ccccc3c2=O)cc1)=[N+](C)C,IC50,EBC-1,< 20 µM
COc1ccc(-c2nc3ccc(-c4ccc5n[se]nc5c4)cc3[nH]2)cc1,IC50,EJ,1.48 µM
NS(=O)(=O)c1ccc(CCNC(=O)C[Se]c2ccccc2)cc1,Ki,Carbonic anhydrase 9,0.0047 µM
same,Ki,Carbonic anhydrase 2,0.0049 µM
same,Ki,Carbonic anhydrase 1,0.0642 µM
same,Ki,Carbonic anhydrase 12,0.0038 µM
Cc1ccc([Se]CC(C)N)cc1 (stereo not given),Ki,Carbonic anhydrase 7,10.4 µM
Nc1ccc(-c2ccc3n[se]nc3c2)cc1N,IC50,[7],22.5 µM
[Se]=C=NCCCCCCC1Cc2cccc3cccc(c23)C1,IC50,Leishmania major,0.0301 µM
same,IC50,Leishmania amazonensis,0.28 µM
Cc1ccc(NC(=[Se])NC(=O)c2ccc3c(c2)OCO3)cc1,IC50,NCI-H1299,1.5 µM
same,IC50,Calu-1,5.9 µM
c1csc([Se][Se]c2cccs2)c1,MIC,Bacillus cereus [8],24.2 µg/mL
same,MIC,Bacillus cereus [9],24.2 µg/mL
same,MIC,Enterococcus faecalis [10],96.8 µg/mL
same,MIC,[11],96.8 µg/mL
O=[N+]([O-])c1ccc2n[se]nc2c1,IC50,HeLa [12],4.8 µM
CCc1ccccc1-n1c(=[Se])n(C(c2ccccc2)c2ccccc2)c2ccccc21,inhibition zone (IZ),Aspergillus niger,27.01 mm
COC(CNC(=[Se])Nc1ccc([N+](=O)[O-])cc1)c1ccc(O)c(O)c1 (stereo not given),IC50,HeLa [13],1.8 µM
same,IC50,HeLa [14],3.76 µM
CC(C)(O)c1[se][n+]2ccccc2c1Br.[Cl-],MIC,Staphylococcus aureus [15],0.31 µM
same,MIC,Escherichia coli [16],0.31 µg/mL
same,IC50,Klebsiella pneumoniae [17],0.31 µg/mL
same,IC50,"Pseudomonas aeruginosa [18]; PA 54, 20 h",0.31 µg/mL
same,MIC,"Pseudomonas aeruginosa [18]; PA 54, time 20 hrs",0.31 µg/mL
same,IC50,Acinetobacter [19],0.31 µg/mL
same,MIC,Pseudomonas aeruginosa [20],0.31 µg/mL
same,IC50,Pseudomonas aeruginosa [21],0.31 µg/mL
same,IC50,Klebsiella pneumoniae [22],0.31 µg/mL
same,MIC,Escherichia coli [23],0.31 µg/mL
same,IC50,Acinetobacter [24],0.31 µg/mL
same,MIC,Escherichia coli [25],0.31 µg/mL
same,IC50,Klebsiella pneumoniae [26],0.31 µg/mL
same,IC50,Acinetobacter [27],0.31 µg/mL
same,IC50,Pseudomonas aeruginosa [28],0.31 µg/mL
same,MIC,Escherichia coli [29],0.31 µg/mL
O=c1[nH]c(=O)c2n[se]nc2[nH]1,IC50,A-375,14.3 µM
same,IC50,HepG2,19.6 µM
same,IC50,MCF7,46 µM
O=C(Cn1ccnc1[N+](=O)[O-])NCc1ccccc1 [BENZNIDAZOLE],IC50,Trypanosoma cruzi [30],104 µM
same,IC50,Trypanosoma cruzi [31],12.5 µM
O=c1c2ccccc2[se]n1-c1ccccc1 [EBSELEN],inhibition (INH),MIA PaCa-2,58%
same,IC50,U-266,40 µM
O=c1c2ccccc2[se]n1CCn1[se]c2ccccc2c1=O [ETHASELEN],IC50,DU-145,15.5 µM
same,IC50,PC-3,17.8 µM
